Where “and” joins values, the source holds several entries; their conditions need not be identical. Equal entries are not always repeated. Entries after “also recorded” stand apart in the source; their conditions may differ. Where two headings read alike, the source gives them in different places.
Columns and labels:
[1] = system: Tzc-ACR-16-REM; experiment: Voltage-clamp electrophysiology, coding-sequence modified ACR-16 in oocytes; type: cell-based, T. callipaeda; details: B. malayi ric-3 co-injected; agonist not named in the legend (ACh by the matching native values)
Protocol: (§1) B. malayi acr-16 and accessory proteins ric-3, unc-50, unc-74 and molo-1 were cloned from adult female B. malayi cDNA received as a gift from Dr. T. Geary using the primers described in S1 Table. B. malayi eat-18 was prepared from two overlapping oligonucleotide primers. Other subunits were synthesized from their predicted genome sequence (Gene Universal, USA) (S2 Table). […] All sequences were cloned into the pTD2 oocyte expression vector. Asu-ACR-16 and Tzc-ACR-16 chimeras were constructed using appropriate restriction enzymes, reciprocal exchange through ligation and confirmed by sequencing (McLab, USA).
(§2) cRNA for oocyte injection was prepared with the mMESSAGE mMACHINE T7 kit following manufacturers protocol (Ambion, USA). Concentration was determined using a Nanodrop spectrophotometer. Desired subunit combinations with associated accessory proteins were mixed and diluted with nuclease-free water to a final concentration of 250 ng/uL for each construct.
Adult female X. laevis oocyte extraction was performed in accordance with the McGill University Animal Use Protocol 2015–7758 following standard protocol. […] All electrophysiology was conducted two days post-injection, except for the expression analysis assay in which oocytes were measured every day after injection for three consecutive days. […]

[2] = system: Bma-ACR-16; type: cell-based, Brugia malayi
Protocol: as §2
(§3) Adult female X. laevis oocyte extraction was performed in accordance with the McGill University Animal Use Protocol 2015–7758 following standard protocol. Briefly, frog ovary lobes were placed in a Ca^2+-free OR2 solution (82 mM NaCl, 2 mM KCl, 1 mM MgCl2, 5 mM HEPES buffer, pH 7.3) and manually divided into clusters of <10 oocytes with thin tweezers followed by a 90-minute incubation in 10 mg/mL collagenase type II (Sigma-Aldrich, USA). Oocytes were washed in Ca^2+-free OR2 and placed ND96 solution (NaCl 96 mM, KCl 2 mM, CaCl2 1.8 mM, MgCl2 1 mM and HEPES 5 mM, pH 7.3) supplemented with sodium pyruvate 2.5 mM [86] and incubated at 18°C until cRNA injection. Oocytes were injected with 50 nL (12.5 ng of each injected gene) of the desired cRNA subunit and accessory protein combination mix with the NanojectII (Drummond Scientific, USA). Following injection, oocytes were incubated in ND96 buffer at 18°C until electrophysiology. All electrophysiology was conducted two days post-injection, except for the expression analysis assay in which oocytes were measured every day after injection for three consecutive days.
(§4) All drugs were dissolved in recording solution (NaCl 100 mM, KCl 2.5 mM, CaCl2 1 mM, HEPES 5 mM, pH 7.3) to a stock concentration of 10 mM and diluted to their final recording concentrations. Oxantel and bephenium were first dissolved in DMSO to ensure a final recording concentration contained less than 0.1% DMSO. For agonist profiling, all drugs were diluted to a concentration of 100 μM.
Oocytes were placed individually in an RC3Z chamber (Harvard Apparatus, USA) submerged in recording solution (NaCl 100 mM, KCl 2.5 mM, CaCl2 1 mM, HEPES 5 mM, pH 7.3). The RC3Z chamber was connected to a perfusion system containing recording solution and ligand solutions. Pulled glass capillaries (World Precision Instruments, USA) were filled with 3M KCl and the tips clipped and checked for appropriate resistance (between 0.5 and 5 MΩ). A 3M KCl agar bridge grounded the oocyte bath chamber. Measurements were made using an Axon Axoclamp 900A amplifier with Digidata1550M. […] Ligand solutions were applied to the oocytes with an approximate flow rate of 1.2 m/s and current responses measured. Oocytes were exposed to the ligand solution until a distinct current peak was observed followed by a wash with the recording solution until current returned to baseline for a minimum of 10 seconds until the next ligand exposure. For BAPTA-AM exposed oocytes, oocytes were incubated in 100 μM BAPTA-AM for four hours prior to electrophysiology recording. Data was analyzed using Clampex 9.2 (Axon Instruments, USA) and statistical analysis and graphs produced in Prism (GraphPad version 9.1). T-tests were used to compare responses with error bars representing standard error. For concentration-response curves, individual oocyte current response to the different ligand concentrations were normalized to the response obtained with 300 μM. Data was fit using the Graphpad “log(agonist) vs normalized response–variable slope” equation, with 95% confidence intervals being reported. […] For examples of oocyte responses, recordings were filtered in Clampfit using the lowband pass at 40 Hz cutoff.

[3] = system: ASU-TM (A. suum TM regions in Tzc-ACR-16); experiment: Voltage-clamp electrophysiology, A. suum/T. callipaeda ACR-16 chimera in oocytes; type: cell-based; details: S2C Fig
Protocol: as §1, §2, §3, §4
(§5) Oocytes were placed individually in an RC3Z chamber (Harvard Apparatus, USA) submerged in recording solution (NaCl 100 mM, KCl 2.5 mM, CaCl2 1 mM, HEPES 5 mM, pH 7.3). The RC3Z chamber was connected to a perfusion system containing recording solution and ligand solutions. Pulled glass capillaries (World Precision Instruments, USA) were filled with 3M KCl and the tips clipped and checked for appropriate resistance (between 0.5 and 5 MΩ). A 3M KCl agar bridge grounded the oocyte bath chamber. Measurements were made using an Axon Axoclamp 900A amplifier with Digidata1550M. […] Ligand solutions were applied to the oocytes with an approximate flow rate of 1.2 m/s and current responses measured. Oocytes were exposed to the ligand solution until a distinct current peak was observed followed by a wash with the recording solution until current returned to baseline for a minimum of 10 seconds until the next ligand exposure. For BAPTA-AM exposed oocytes, oocytes were incubated in 100 μM BAPTA-AM for four hours prior to electrophysiology recording. Data was analyzed using Clampex 9.2 (Axon Instruments, USA) and statistical analysis and graphs produced in Prism (GraphPad version 9.1). T-tests were used to compare responses with error bars representing standard error. For concentration-response curves, individual oocyte current response to the different ligand concentrations were normalized to the response obtained with 300 μM.

[4] = system: TZC-ICL (T. callipaeda ICL in Asu-ACR-16); experiment: as above; type: cell-based; details: S2C Fig
Protocol: as §1, §2, §3, §4, §5

[5] = system: TZC-ECD (T. callipaeda ECD in Asu-ACR-16); experiment: as above; type: cell-based; details: S2C Fig
Protocol: as §1, §2, §3, §4, §5

[6] = system: TZC-TM (Tzc-TM region in A. suum ACR-16); experiment: as above; type: cell-based; details: S2C Fig
Protocol: as §1, §2, §3, §4, §5

[7] = system: ASU-ICL (A. suum ICL in Tzc-ACR-16); experiment: as above; type: cell-based; details: S2C Fig
Protocol: as §1, §2, §3, §4, §5

[8] = system: ASU-ECD (A. suum ECD in Tzc-ACR-16); experiment: as above; type: cell-based; details: S2C Fig
Protocol: as §1, §2, §3, §4, §5

CC(=O)OCC[N+](C)(C)C [ACh, acetylcholine]
current response [1]: 587 ± 415 nA
current response to 100 μM acetylcholine ([2]; No accessory protein): 0 ± 0 (n=12) nA
current response to 100 μM acetylcholine ([2]; co-injected: Bma-ric-3 (reference condition)): no responses and 0 ± 0 (n=8) nA
current response to 100 μM acetylcholine ([2]; co-injected: Bma-ric-3 + Bma-eat-18): 0± 0 (n=10) nA
current response to 100 μM acetylcholine ([2]; co-injected: Bma-ric-3 + Bma-emc-6 + Cel-nra-2 + Cel-nra-4): 11 ± 9 nA
current response to 100 μM acetylcholine ([2]; co-injected: Bma-ric-3 + Bma-emc-6 + Cel-nra-2 + Cel-nra-4 + Bma-eat-18): 2 ± 1 nA
current response to 100 μM acetylcholine ([2]; co-injected: Bma-ric-3 + Bma-emc-6 + Cel-nra-2 + Cel-nra-4 + Bma-eat-18 + Bma-unc-50 + Bma-unc-74): 0 ± 0 nA
current response to 100 μM acetylcholine ([2]; co-injected: Bma-ric-3 + Bma-emc-6 + Cel-nra-2 + Cel-nra-4 + Bma-eat-18 + Bma-unc-50 + Bma-unc-74, listed as acetylcholine): 0 ± 0 (n=11) nA
current response to 100 μM acetylcholine ([2]; co-injected: Bma-ric-3 + Bma-emc-6 + Cel-nra-2 + Cel-nra-4 + Bma-eat-18, listed as acetylcholine): 2 ± 1 (n=12) ns nA
current response to 100 μM acetylcholine ([2]; co-injected: Bma-ric-3 + Bma-emc-6 + Cel-nra-2 + Cel-nra-4, listed as acetylcholine): 11 ± 9 (n=11) ns nA
current response to 100 μM acetylcholine ([2]; co-injected: Bma-ric-3 + Bma-molo-1): 0 ± 0 (n=16) nA
current response to 100 μM acetylcholine ([2]; co-injected: Bma-ric-3 + Bma-unc-50 + Bma-unc-74): 0 ± 0 (n=5) nA
current response to 100 μM acetylcholine ([2]; co-injected: Bma-ric-3 + Bma-unc-50 + Bma-unc-74 + Bma-eat-18): 0 ± 0 (n=13) nA
current response to 100 μM acetylcholine ([2]; co-injected: Bma-ric-3 + Cel-emc-6): 17 ± 4 nA and 17 ± 4 (n=13) nA
current response to 100 μM acetylcholine ([2]; co-injected: Bma-ric-3 + Cel-nra-2): 33 ± 9 nA
current response to 100 μM acetylcholine ([2]; co-injected: Bma-ric-3 + Cel-nra-2 + Cel-nra-4, listed as acetylcholine): 4 ± 2 nA and 4 ± 2 (n=12) nA
current response to 100 μM acetylcholine ([2]; co-injected: Bma-ric-3 + Cel-nra-2, listed as acetylcholine): 33 ± 9 (n=14) nA
current response to 100 μM acetylcholine ([2]; co-injected: Bma-ric-3 + Cel-nra-4): 31 ±13 nA
current response to 100 μM acetylcholine ([2]; co-injected: Bma-ric-3 + Cel-nra-4, listed as acetylcholine): 31 ± 13 (n=12) ns nA
current response to 100 μM acetylcholine ([2]; co-injected: Hco-ric-3): no measurable current; also recorded: no responses
current response to 100 μM acetylcholine ([2]; co-injected: Hco-ric-3, listed as acetylcholine): 0 ± 0 nA and 0 ± 0 (n=12) nA
response to ACh [3]: 24 ± 8 nA
response to ACh [4]: 1959 ± 78 nA
response to ACh [5]: 42 ± 9 nA
response to ACh [6]: 2917 ± 105 nA
response to ACh [7]: 2237 ± 98 nA
response to ACh [8]: 1819 ± 115 nA

From article PMC9714921 (PLOS Pathogens, 2022)
